Reference: patent US20240116985A1, “STAPLED PEPTIDES AND METHODS THEREOF” (priority 2020, published 2024)
Values after ≈ are worked out from the molar mass of the structure shown.

Assay: Solubility in PBS
Assay type: physicochemical
Conditions: for solubility at 15 min: Solubility (uM)
Description: After ultracentrifugation of the PBS solution, the supernatant was analyzed by HPLC and compared to an HPLC injection 50 μM peptide DMSO solution. Solubility was determined by: [(Area of PBS peak)/(Area of DMSO peak)]*50 uM.

Compound | Solubility [µM] | solubility at 15 min [µM]
CC(=O)N1CCC[C@]12CC=CCCCC1(CCCC=CCCCOC(=O)N3CC[C@@](C(=O)N[C@@H](Cc4ccccc4Cl)C(=O)N[C@@H](Cc4csc5ccccc45)C(=O)N[C@H](CO)[C@@H](C)O)(C3)NC(=O)[C@H](CC(C)C)NC(=O)[C@H](Cc3ccccc3)NC(=O)[C@H](C)NC(=O)[C@H](C)NC(=O)[C@H](Cc3cccc(C(=O)O)c3)NC(=O)[C@H](CC(=O)O)NC1=O)NC(=O)[C@H](CC(C)(C)C)NC(=O)[C@H](CC(=O)O)NC2=O (stereo partly drawn) [I-1334, PL3-Asp-Npg-B5-Asp-3COOHF-Ala-Ala-Phe-Leu-PyrS2-2C1F-BztA-Thro1] | 10 (≈ 19.8 µg/mL) | –
CC(=O)N1CCC[C@]12CC=CCCCC1(CCCC=CCCCOC(=O)N3CC[C@@](C(=O)N[C@@H](Cc4ccccc4C(F)(F)F)C(=O)N[C@@H](Cc4csc5ccccc45)C(=O)N[C@@H](CCC(N)=O)C(N)=O)(C3)NC(=O)[C@H](CC(C)C)NC(=O)[C@H](Cc3ccccc3)NC(=O)[C@H](C)NC(=O)[C@H](C)NC(=O)[C@H](Cc3cccc(C(=O)O)c3)NC(=O)[C@H](CC(=O)O)NC1=O)NC(=O)[C@H](CC(C)(C)C)NC(=O)[C@H](CC(=O)O)NC2=O (stereo partly drawn) [I-1335, PL3-Asp-Npg-B5-Asp-3COOHF-Ala-Ala-Phe-Leu-PyrS2-2F3MeF-BztA-Gln-NH2] | – | 11 (≈ 22.6 µg/mL)
CC(=O)N1CCC[C@]12CC=CCCCC1(CCCC=CCCCOC(=O)N3CC[C@@](C(=O)N[C@@H](Cc4ccccc4C(F)(F)F)C(=O)N[C@@H](Cc4csc5ccccc45)C(=O)N[C@@H](CO)C(N)=O)(C3)NC(=O)[C@H](CC(C)C)NC(=O)[C@H](Cc3ccccc3)NC(=O)[C@H](C)NC(=O)[C@H](C)NC(=O)[C@H](Cc3cccc(C(=O)O)c3)NC(=O)[C@H](CC(=O)O)NC1=O)NC(=O)[C@H](CC(C)(C)C)NC(=O)[C@H](CC(=O)O)NC2=O (stereo partly drawn) [I-1336, PL3-Asp-Npg-B5-Asp-3COOHF-Ala-Ala-Phe-Leu-PyrS2-2F3MeF-BztA-Ser-NH2] | 10 (≈ 20.1 µg/mL) | –
CC(=O)N1CCC[C@]12CC=CCCCC1(CCCC=CCCCOC(=O)N3CC[C@@](C(=O)N[C@@H](Cc4ccccc4C(F)(F)F)C(=O)N[C@@H](Cc4csc5ccccc45)C(=O)N[C@H](CO)[C@@H](C)O)(C3)NC(=O)[C@H](CC(C)C)NC(=O)[C@H](Cc3ccccc3)NC(=O)[C@H](C)NC(=O)[C@H](C)NC(=O)[C@H](Cc3cccc(C(=O)O)c3)NC(=O)[C@H](CC(=O)O)NC1=O)NC(=O)[C@H](CC(C)(C)C)NC(=O)[C@H](CC(=O)O)NC2=O (stereo partly drawn) [I-1337, PL3-Asp-Npg-B5-Asp-3COOHF-Ala-Ala-Phe-Leu-PyrS2-2F3MeF-BztA-Thro1] | 10 (≈ 20.2 µg/mL) | –
CC(=O)N1CCC[C@]12CC=CCCCC1(CCCC=CCCCOC(=O)N3CC[C@@](C(=O)N[C@@H](Cc4ccccc4Cl)C(=O)N[C@@H](Cc4csc5ccccc45)C(=O)N[C@@H](CCC(N)=O)C(N)=O)(C3)NC(=O)[C@H](Cc3ccccc3)NC(=O)[C@H](Cc3ccccc3)NC(=O)[C@H](C)NC(=O)[C@H](C)NC(=O)[C@H](Cc3cccc(C(=O)O)c3)NC(=O)[C@H](CC(=O)O)NC1=O)NC(=O)[C@H](CC(C)(C)C)NC(=O)[C@H](CC(=O)O)NC2=O (stereo partly drawn) [I-1338, PL3-Asp-Npg-B5-Asp-3COOHF-Ala-Ala-Phe-Phe-PyrS2-2C1F-BztA-Gln-NH2] | 10 (≈ 20.6 µg/mL) | –
CC(=O)N1CCC[C@]12CC=CCCCC1(CCCC=CCCCOC(=O)N3CC[C@@](C(=O)N[C@@H](Cc4ccccc4Cl)C(=O)N[C@@H](Cc4csc5ccccc45)C(=O)N[C@@H](CO)C(N)=O)(C3)NC(=O)[C@H](Cc3ccccc3)NC(=O)[C@H](Cc3ccccc3)NC(=O)[C@H](C)NC(=O)[C@H](C)NC(=O)[C@H](Cc3cccc(C(=O)O)c3)NC(=O)[C@H](CC(=O)O)NC1=O)NC(=O)[C@H](CC(C)(C)C)NC(=O)[C@H](CC(=O)O)NC2=O (stereo partly drawn) [I-1339, PL3-Asp-Npg-B5-Asp-3COOHF-Ala-Ala-Phe-Phe-PyrS2-2C1F-BztA-Ser-NH2] | 10 (≈ 20.1 µg/mL) | –
CC(=O)N1CCC[C@]12CC=CCCCC1(CCCC=CCCCOC(=O)N3CC[C@@](C(=O)N[C@@H](Cc4ccccc4Cl)C(=O)N[C@@H](Cc4csc5ccccc45)C(=O)N[C@H](CO)[C@@H](C)O)(C3)NC(=O)[C@H](Cc3ccccc3)NC(=O)[C@H](Cc3ccccc3)NC(=O)[C@H](C)NC(=O)[C@H](C)NC(=O)[C@H](Cc3cccc(C(=O)O)c3)NC(=O)[C@H](CC(=O)O)NC1=O)NC(=O)[C@H](CC(C)(C)C)NC(=O)[C@H](CC(=O)O)NC2=O (stereo partly drawn) [I-1340, PL3-Asp-Npg-B5-Asp-3COOHF-Ala-Ala-Phe-Phe-PyrS2-2C1F-BztA-Thro1] | 10 (≈ 20.2 µg/mL) | –
CC(=O)N1CCC[C@]12CC=CCCCC1(CCCC=CCCCOC(=O)N3CC[C@@](C(=O)N[C@@H](Cc4cccs4)C(=O)N[C@@H](Cc4csc5ccccc45)C(=O)N[C@@H](CCC(N)=O)C(N)=O)(C3)NC(=O)[C@H](CC(C)C)NC(=O)[C@H](Cc3ccccc3)NC(=O)[C@H](C)NC(=O)[C@H](C)NC(=O)[C@H](CC(=O)O)NC(=O)[C@H](CC(=O)O)NC1=O)NC(=O)[C@H](CC(C)(C)C)NC(=O)[C@H](CC(=O)O)NC2=O (stereo partly drawn) [I-1344, PL3-Asp-Npg-B5-Asp-Asp-Ala-Ala-Phe-Leu-PyrS2-2Thi-BztA-Gln-NH2] | – | 44 (≈ 84.4 µg/mL)
CC(=O)N1CCC[C@]12CC=CCCCC1(CCCC=CCCCOC(=O)N3CC[C@@](C(=O)N[C@@H](Cc4cccs4)C(=O)N[C@@H](Cc4csc5ccccc45)C(=O)N[C@@H](CCC(N)=O)C(N)=O)(C3)NC(=O)[C@H](Cc3ccccc3)NC(=O)[C@H](Cc3ccccc3)NC(=O)[C@H](C)NC(=O)[C@H](C)NC(=O)[C@H](CC(=O)O)NC(=O)[C@H](CC(=O)O)NC1=O)NC(=O)[C@H](CC(C)(C)C)NC(=O)[C@H](CC(=O)O)NC2=O (stereo partly drawn) [I-1345, PL3-Asp-Npg-B5-Asp-Asp-Ala-Ala-Phe-Phe-PyrS2-2Thi-BztA-Gln-NH2] | – | 37 (≈ 72.2 µg/mL)
CC(=O)N1CCC[C@]12CC=CCCCC1(CCCC=CCCCOC(=O)N3CC[C@@](C(=O)N[C@H](Cc4ccccc4)C(=O)N[C@@H](Cc4csc5ccccc45)C(=O)N[C@@H](CCC(N)=O)C(N)=O)(C3)NC(=O)[C@H](CC(N)=O)NC(=O)[C@H](Cc3ccccc3)NC(=O)[C@H](C)NC(=O)[C@H](C)NC(=O)[C@H](CC(=O)O)NC(=O)[C@H](CC(=O)O)NC1=O)NC(=O)[C@H](CC(C)(C)C)NC(=O)[C@H](CC(=O)O)NC2=O (stereo partly drawn) [I-1346, PL3-Asp-Npg-B5-Asp-Asp-Ala-Ala-Phe-Asn-PyrS2-dPhe-BztA-Gln-NH2] | 50 (≈ 95.6 µg/mL) | –
CC(=O)N1CCC[C@]12CC=CCCCC1(CCCC=CCCCOC(=O)N3CC[C@@](C(=O)N[C@@H](CCc4ccccc4)C(=O)N[C@@H](Cc4csc5ccccc45)C(=O)N[C@@H](CCC(N)=O)C(N)=O)(C3)NC(=O)[C@H](CC(C)C)NC(=O)[C@H](Cc3ccccc3)NC(=O)[C@H](C)NC(=O)[C@H](C)NC(=O)[C@H](CC(=O)O)NC(=O)[C@H](CC(=O)O)NC1=O)NC(=O)[C@H](CC(C)(C)C)NC(=O)[C@H](CC(=O)O)NC2=O (stereo partly drawn) [I-1350, PL3-Asp-Npg-B5-Asp-Asp-Ala-Ala-Phe-Leu-PyrS2-hPhe-BztA-Gln-NH2] | – | 28 (≈ 53.9 µg/mL)
CC(=O)N1CCC[C@]12CC=CCCCC1(CCCC=CCCCOC(=O)N3CC[C@@](C(=O)N[C@@H](CCc4ccccc4)C(=O)N[C@@H](Cc4csc5ccccc45)C(=O)N[C@@H](CCC(N)=O)C(N)=O)(C3)NC(=O)[C@H](Cc3ccccc3)NC(=O)[C@H](Cc3ccccc3)NC(=O)[C@H](C)NC(=O)[C@H](C)NC(=O)[C@H](CC(=O)O)NC(=O)[C@H](CC(=O)O)NC1=O)NC(=O)[C@H](CC(C)(C)C)NC(=O)[C@H](CC(=O)O)NC2=O (stereo partly drawn) [I-1351, PL3-Asp-Npg-B5-Asp-Asp-Ala-Ala-Phe-Phe-PyrS2-hPhe-BztA-Gln-NH2] | – | 14 (≈ 27.4 µg/mL)
